This is an account of results in publication PMC6804443 (Acta Pharmaceutica Sinica. B, 2019).

Series [1] relates to human drug metabolizing enzymes and transporters. Description: Inhibitory DDI index of XueBiJing compounds as perpetrators. As to conditions: XueBiJing at label dose; range over the named compounds.
The target of another series is OATP1B1 (Homo sapiens, UniProt Q9Y6L6). Kind of series: OATP1B1 inhibition by XueBiJing compounds, transfected HEK293 cells [E217βG]. In kind it is in vitro ADME.
Sequence of OATP1B1 (Q9Y6L6 whole entry): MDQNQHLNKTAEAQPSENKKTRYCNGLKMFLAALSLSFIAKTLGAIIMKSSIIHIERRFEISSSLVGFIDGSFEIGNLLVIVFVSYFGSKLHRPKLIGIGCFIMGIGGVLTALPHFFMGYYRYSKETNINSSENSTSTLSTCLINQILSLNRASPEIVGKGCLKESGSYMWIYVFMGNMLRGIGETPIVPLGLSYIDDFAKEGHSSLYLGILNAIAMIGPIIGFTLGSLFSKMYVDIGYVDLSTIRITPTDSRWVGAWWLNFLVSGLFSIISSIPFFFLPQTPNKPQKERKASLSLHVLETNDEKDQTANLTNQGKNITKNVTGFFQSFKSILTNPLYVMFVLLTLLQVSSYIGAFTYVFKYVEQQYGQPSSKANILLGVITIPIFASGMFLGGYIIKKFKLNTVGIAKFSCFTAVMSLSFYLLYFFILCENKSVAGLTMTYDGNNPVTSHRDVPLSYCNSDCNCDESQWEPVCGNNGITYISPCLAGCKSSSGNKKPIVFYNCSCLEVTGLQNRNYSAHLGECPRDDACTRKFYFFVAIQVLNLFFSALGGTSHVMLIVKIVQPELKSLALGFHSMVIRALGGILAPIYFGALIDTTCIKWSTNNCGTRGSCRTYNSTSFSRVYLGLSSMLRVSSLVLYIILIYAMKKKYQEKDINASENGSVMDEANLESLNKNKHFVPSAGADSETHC
In the next series the test system is CYP3A4. As to conditions: higher concentrations; range over the named compounds and enzymes.
Series [2] addresses T1, CYP2C19 (Homo sapiens, UniProt P33261). Kind of series: CYP2C19 inhibition by XueBiJing compounds, cDNA-expressed enzyme [CEC→CHC]. The series is classed as in vitro ADME.
Series [3] addresses T1, CYP2C19. The series is classed as in vitro ADME.
The conditions of series [4]: XueBiJing compounds, cited from earlier work.
Another series addresses T2, UGT1A6 (Homo sapiens, UniProt P19224).
T2 sequence (P19224 27-532): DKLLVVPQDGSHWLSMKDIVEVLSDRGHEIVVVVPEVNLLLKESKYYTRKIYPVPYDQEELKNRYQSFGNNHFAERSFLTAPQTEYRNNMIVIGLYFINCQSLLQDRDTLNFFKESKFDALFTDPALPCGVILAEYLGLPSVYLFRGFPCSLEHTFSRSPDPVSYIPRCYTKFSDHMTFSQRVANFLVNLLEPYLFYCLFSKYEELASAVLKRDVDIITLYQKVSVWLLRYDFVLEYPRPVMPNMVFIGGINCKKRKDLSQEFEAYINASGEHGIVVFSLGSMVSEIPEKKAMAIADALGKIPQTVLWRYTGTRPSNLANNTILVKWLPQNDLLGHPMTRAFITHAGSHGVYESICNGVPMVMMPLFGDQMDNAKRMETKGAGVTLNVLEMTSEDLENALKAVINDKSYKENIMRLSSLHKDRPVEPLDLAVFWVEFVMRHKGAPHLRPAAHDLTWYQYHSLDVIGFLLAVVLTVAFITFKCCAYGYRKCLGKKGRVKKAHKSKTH
Kind of series: UGT1A6 inhibition by XueBiJing compounds, cDNA-expressed enzyme [4-MU→4-MUG]. The series is classed as in vitro ADME.

Series [5] concerns P450 enzymes, UGTs, SULTs, OATP1B1/1B3, OAT1/3, OCT2, MATE1/2-K, MDR1, BCRP. As to conditions: cited from earlier work.
For series [6] the following is noted: cited from earlier work.
Another series deals with T3, UGT2B15 (Homo sapiens, UniProt P54855).
T3 sequence (P54855 24-530): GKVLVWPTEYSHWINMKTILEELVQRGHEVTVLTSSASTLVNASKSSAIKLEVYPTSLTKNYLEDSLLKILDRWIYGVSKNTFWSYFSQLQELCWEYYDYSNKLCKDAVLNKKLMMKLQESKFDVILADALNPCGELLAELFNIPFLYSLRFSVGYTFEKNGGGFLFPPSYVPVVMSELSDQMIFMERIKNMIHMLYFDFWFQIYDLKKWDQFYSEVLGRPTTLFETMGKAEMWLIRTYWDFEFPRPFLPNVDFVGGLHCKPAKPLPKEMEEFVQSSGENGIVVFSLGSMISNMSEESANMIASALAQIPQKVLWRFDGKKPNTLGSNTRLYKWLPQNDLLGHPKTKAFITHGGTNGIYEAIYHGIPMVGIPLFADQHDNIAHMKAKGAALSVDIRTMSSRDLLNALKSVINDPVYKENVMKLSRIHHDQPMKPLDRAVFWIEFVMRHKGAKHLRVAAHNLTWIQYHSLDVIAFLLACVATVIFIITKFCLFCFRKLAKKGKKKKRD
Kind of series: UGT2B15 inhibition by XueBiJing compounds, cDNA-expressed enzyme [SENI→S7G]. In kind it is in vitro ADME.

A further series deals with CYP2C9 (Homo sapiens, UniProt P11712). Kind of series: CYP2C9 inhibition by XueBiJing compounds, cDNA-expressed enzyme [MFC→HFC]. In kind it is in vitro ADME.
Sequence of CYP2C9 (P11712 whole entry): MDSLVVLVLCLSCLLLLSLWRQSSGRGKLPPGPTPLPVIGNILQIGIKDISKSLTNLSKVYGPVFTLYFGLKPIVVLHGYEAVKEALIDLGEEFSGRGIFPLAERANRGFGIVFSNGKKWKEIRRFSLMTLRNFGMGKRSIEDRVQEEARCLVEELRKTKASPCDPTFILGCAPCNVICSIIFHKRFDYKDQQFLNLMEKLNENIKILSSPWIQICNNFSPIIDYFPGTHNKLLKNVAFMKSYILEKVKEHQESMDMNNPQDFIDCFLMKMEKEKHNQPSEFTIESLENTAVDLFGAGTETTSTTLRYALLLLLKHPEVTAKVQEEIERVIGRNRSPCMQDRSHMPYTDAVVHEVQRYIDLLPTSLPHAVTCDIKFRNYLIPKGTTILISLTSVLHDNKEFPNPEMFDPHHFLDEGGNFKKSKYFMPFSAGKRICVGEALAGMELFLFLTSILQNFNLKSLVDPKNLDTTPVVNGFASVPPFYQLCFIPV
The target in a further series is T4, OAT3 (Homo sapiens, UniProt Q8TCC7).
T4 sequence (Q8TCC7 1-542): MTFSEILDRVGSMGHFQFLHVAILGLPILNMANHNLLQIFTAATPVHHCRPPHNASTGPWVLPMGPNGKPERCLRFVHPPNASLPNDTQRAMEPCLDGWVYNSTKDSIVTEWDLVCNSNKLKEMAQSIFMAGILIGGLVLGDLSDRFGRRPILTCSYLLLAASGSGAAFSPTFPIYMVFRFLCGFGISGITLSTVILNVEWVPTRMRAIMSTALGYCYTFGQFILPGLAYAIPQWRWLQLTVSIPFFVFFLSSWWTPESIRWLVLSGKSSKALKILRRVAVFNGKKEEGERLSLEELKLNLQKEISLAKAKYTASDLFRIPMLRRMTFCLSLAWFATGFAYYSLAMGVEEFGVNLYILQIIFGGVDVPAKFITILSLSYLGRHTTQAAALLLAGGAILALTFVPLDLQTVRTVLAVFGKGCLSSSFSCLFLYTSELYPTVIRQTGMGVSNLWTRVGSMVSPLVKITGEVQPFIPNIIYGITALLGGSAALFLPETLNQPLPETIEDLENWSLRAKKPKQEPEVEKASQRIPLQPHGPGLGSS
In kind it is in vitro ADME.

A further series has as its target T5, UGT1A9 (Homo sapiens, UniProt O60656).
T5 sequence (O60656 26-530): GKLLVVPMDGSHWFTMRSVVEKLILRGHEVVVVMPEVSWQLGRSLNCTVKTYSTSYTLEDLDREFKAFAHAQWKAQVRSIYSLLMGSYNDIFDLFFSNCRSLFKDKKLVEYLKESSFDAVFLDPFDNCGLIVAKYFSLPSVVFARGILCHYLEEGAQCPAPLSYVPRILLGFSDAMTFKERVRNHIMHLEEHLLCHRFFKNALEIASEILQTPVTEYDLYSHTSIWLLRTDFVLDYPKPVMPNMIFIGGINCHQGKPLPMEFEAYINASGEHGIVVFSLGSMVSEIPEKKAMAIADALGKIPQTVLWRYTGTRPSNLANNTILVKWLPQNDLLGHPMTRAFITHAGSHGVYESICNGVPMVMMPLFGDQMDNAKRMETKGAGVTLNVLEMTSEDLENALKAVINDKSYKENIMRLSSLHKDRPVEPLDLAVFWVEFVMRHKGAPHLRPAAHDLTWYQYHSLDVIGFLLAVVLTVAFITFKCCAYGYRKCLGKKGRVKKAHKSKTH
Description: UGT1A9 inhibition by XueBiJing compounds, cDNA-expressed enzyme [4-MU→4-MUG]. In kind it is in vitro ADME.

The subject of the next series is CYP2B6. Description: CYP2B6 induction by XueBiJing compounds in cryopreserved human hepatocytes. The series is classed as in vitro ADME. The note with it: higher concentrations; range over the named compounds and enzymes.
Where [7] appears, read: human, XueBiJing 100 mL via 75-min intravenous infusion.

“Also recorded” adds a separate entry of the source. Bounds are passed on as bounds.

T1 sequence (P33261 whole entry): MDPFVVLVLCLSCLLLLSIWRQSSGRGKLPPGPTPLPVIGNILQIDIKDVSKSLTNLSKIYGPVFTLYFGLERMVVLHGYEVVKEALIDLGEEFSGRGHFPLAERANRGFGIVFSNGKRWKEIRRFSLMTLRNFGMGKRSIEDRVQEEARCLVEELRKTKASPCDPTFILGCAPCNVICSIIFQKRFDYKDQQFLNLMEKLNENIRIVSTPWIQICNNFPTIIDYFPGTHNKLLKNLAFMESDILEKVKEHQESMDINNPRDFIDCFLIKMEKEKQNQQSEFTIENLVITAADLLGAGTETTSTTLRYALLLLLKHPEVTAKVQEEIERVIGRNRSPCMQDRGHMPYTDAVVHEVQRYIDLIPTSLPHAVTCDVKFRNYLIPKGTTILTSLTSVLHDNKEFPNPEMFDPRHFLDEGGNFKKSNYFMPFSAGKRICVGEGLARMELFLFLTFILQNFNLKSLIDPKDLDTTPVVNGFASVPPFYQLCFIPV

The IC50 is the concentration needed to halve the response being measured. As usually defined, the inhibition is how much of the control response was suppressed. Higher therefore signals strong suppression. As a reminder, the pKa is the negative logarithm of the acid dissociation constant. As a reminder, the Cmax is the highest concentration seen after dosing. Turning to `O=C(/C=C/c1ccc(O)c2c1[C@H](C(=O)O[C@H](Cc1ccc(O)c(O)c1)C(=O)O)[C@@H](c1ccc(O)c(O)c1)O2)O[C@H](Cc1ccc(O)c(O)c1)C(=O)O` [X10, salvianolic acid B], the “DDI index for inhibition of CYP2C9, CYP2C19, OATP1B1, OATP1B3, OAT1 and/or OAT3” value in series [1] is recorded as 0.00003–0.06. Also, the IC50 was determined as 38 ± 3 µM against OATP1B1; 19 ± 4 µM at CYP2C19 [2]; 15 ± 1 µM on UGT1A6; 92 ± 25 µM against UGT2B15; 75 ± 13 µM against CYP2C9; 31 ± 8 µM against OAT3. The 50% inhibitory concentration (IC50) on UGT1A9 turned out to be 3 ± 1 µM. Further, the “mRNA-T/U ratio, CYP3A4” value in the series with CYP3A4 was in the range of 4.0 to 9.6. The inhibition at 100 μmol/L on CYP2C19 [2] (human, cDNA-expressed CYP2C19, probe CEC (25 μmol/L)) is 68 to 80%; against UGT1A6 (human, cDNA-expressed UGT1A6, probe 4-MU (100 μmol/L), 4-MUG formed), more than 90%; on UGT2B15 (human, cDNA-expressed UGT2B15), 55%; on CYP2C9 (human, cDNA-expressed CYP2C9, probe MFC (75 μmol/L)) it was 68 to 80%; at UGT1A9 (human, cDNA-expressed UGT1A9, probe 4-MU (10 μmol/L), 4-MUG formed) it was more than 90%. In addition, the “Time-dependent inhibition of CYP2C19” value on CYP2C19 [3] is “negligible”. Also, in series [4], the pKa is listed as 2.8. In addition, in series [4] (pH 7.4), the “LogD(7.4)” value is given as −2.8. Further, in [5], the “Related metabolism and transport data (substrate status)” value is reported as “Highly selective OATP1B3 substrate; also recorded: COMT substrate”. Further, the “fu-p (unbound fraction in plasma)” value in series [6] (human plasma) is listed as 3%. Also, the Cmax in series [6] (setting [7]) was 100 nM. For the same compound, in series [6] (setting [7]), the VSS is recorded as 1.28 L/kg. Moreover, the t1/2 in [6] (setting [7]) is 12 min. Also, in [6] (human), the Major elimination route result was “Hepatobiliary excretion; also recorded: Hepatic methylation”. For the same compound, the “mRNA-T/U ratio, CYP2B6” value in the series with CYP2B6 was 4.0 to 9.6.
